Measured values as given in ChEMBL document CHEMBL4219272, “Synthesis and biological evaluation of curcumin derivatives modified with α-amino boronic acid as proteasome inhibitors” (Bioorg Med Chem Lett, 2018).
pIC50: −log10 of the molar value.

Key:
HCT-116 [1] = assay: Antiproliferative activity against human HCT116 cells after 72 hrs by MTT assay; format: functional, cell-based; details: HCT-116, 72 h
[2] = target: T1, Proteasome Macropain subunit MB1 (Homo sapiens, UniProt P28074); assay: Inhibition of chymotrypsin-like activity of 20S proteasome in human K562 cells using Suc-LLVYaminoluciferin as substrate after 2 hrs by luminescence assay; format: cell-based
T1 sequence (P28074 whole entry): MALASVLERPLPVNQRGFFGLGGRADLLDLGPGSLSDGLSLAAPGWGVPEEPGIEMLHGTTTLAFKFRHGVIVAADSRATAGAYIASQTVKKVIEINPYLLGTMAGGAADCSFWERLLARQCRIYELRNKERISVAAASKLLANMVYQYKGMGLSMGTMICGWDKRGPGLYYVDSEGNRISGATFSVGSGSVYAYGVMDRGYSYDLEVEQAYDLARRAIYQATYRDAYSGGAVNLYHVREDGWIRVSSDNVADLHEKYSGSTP

[3] = Antiproliferative activity against human 95-D cells after 72 hrs by MTT assay; format: functional, cell-based
A549 = assay: Antiproliferative activity against human A549 cells after 72 hrs by MTT assay; format: functional, cell-based; details: A549, 72 h
MDA-MB-231 = assay: Antiproliferative activity against human MDA-MB-231 cells after 72 hrs by MTT assay; format: functional, cell-based; details: MDA-MB-231, 72 h
HCT-116 [4] = assay: Antiproliferative activity against human HCT116 cells after 36 hrs by XTT assay; format: functional, cell-based; details: HCT-116, 36 h
[5] = target: T1, Proteasome Macropain subunit MB1; assay: Inhibition of chymotrypsin-like activity of 20S proteasome in human LNCAP cell extract using Suc-LLVYaminoluciferin as substrate after 2 hrs
[6] = target: T1, Proteasome Macropain subunit MB1; assay: Inhibition of chymotrypsin-like activity of 20S proteasome in human PC3 cell extract using Suc-LLVYaminoluciferin as substrate after 2 hrs
LNCaP = assay: Growth inhibition of human LNCAP cells at 5 to 10 uM after 48 hrs by MTT assay relative to control; format: functional
[7] = Aqueous solubility of the compound; format: physicochemical; details: buffer

Structure (SMILES): CC1(C)OB([C@H](Cc2ccccc2)NC(=O)N2C/C(=C\c3ccc(F)cc3)C(=O)/C(=C/c3ccc(F)cc3)C2)OC1(C)C
- pIC50 (HCT-116 [1]): 6.22

Structure (SMILES): CC(C)C[C@H](NC(=O)N1CCN(C(=O)N2C/C(=C\c3ccc(F)cc3)C(=O)/C(=C/c3ccc(F)cc3)C2)CC1)B1OC(C)(C)C(C)(C)O1
- pIC50 (HCT-116 [1]): 5.79

Structure (SMILES): CC(C)C[C@H](NC(=O)CNC(=O)N1C/C(=C\c2ccc(F)cc2)C(=O)/C(=C/c2ccc(F)cc2)C1)B1OC(C)(C)C(C)(C)O1
- pIC50 (HCT-116 [1]): 6.43

Structure (SMILES): CC(C)C[C@H](NC(=O)[C@H](Cc1ccccc1)NC(=O)N1C/C(=C\c2ccc(F)cc2)C(=O)/C(=C/c2ccc(F)cc2)C1)B(O)O
- pIC50 (HCT-116 [1]): 6.69
- pIC50 [2]: 6.08

Structure (SMILES): CC(C)(C)[C@H](NC(=O)N1C/C(=C\c2ccc(F)cc2)C(=O)/C(=C/c2ccc(F)cc2)C1)B1OC(C)(C)C(C)(C)O1
- pIC50 (HCT-116 [1]): 6.08

Structure (SMILES): CC(C)[C@H](NC(=O)N1C/C(=C\c2ccc(F)cc2)C(=O)/C(=C/c2ccc(F)cc2)C1)B1OC(C)(C)C(C)(C)O1
- pIC50 (HCT-116 [1]): 6.04

Structure (SMILES): CC(C)C[C@H](NC(=O)N1C/C(=C\c2ccc(F)cc2)C(=O)/C(=C/c2ccc(F)cc2)C1)B1OC(C)(C)C(C)(C)O1
- pIC50 [3]: 5.95
- pIC50 (HCT-116 [1]): 6.07 to 6.08
- pIC50 (A549): 5.30
- pIC50 (MDA-MB-231): 5.48

Structure (SMILES): COc1cc(/C=C/C(=O)CC(=O)/C=C/c2ccc(O)c(OC)c2)ccc1O [CURCUMIN]
- pIC50 [3]: < 5.00
- pIC50 (HCT-116 [1]): 4.96
- pIC50 (HCT-116 [4]): 4.30
- pIC50 (A549): < 5.00
- pIC50 (MDA-MB-231): < 5.00

Structure (SMILES): CC1(C)OB([C@@H](NC(=O)N2C/C(=C\c3ccc(F)cc3)C(=O)/C(=C/c3ccc(F)cc3)C2)C2CCCCC2)OC1(C)C
- pIC50 (HCT-116 [1]): 6.04

Structure (SMILES): COc1cc(/C=C/C(=O)CC(=O)/C=C/c2ccc(OC(=O)[C@@H](N)C(C)C)c(OC)c2)ccc1OC(=O)[C@@H](N)C(C)C
- pIC50 [5]: 5.00
- pIC50 [6]: 5.00
- pIC50 [2]: < 5.30
- growth inhibition (GI) (LNCaP): 38 - 71%

Structure (SMILES): CC(C)C[C@H](NC(=O)[C@H](Cc1ccccc1)NC(=O)N1C/C(=C\c2ccc(F)cc2)C(=O)/C(=C/c2ccc(F)cc2)C1)B1OC(C)(C)C(C)(C)O1
- pIC50 (HCT-116 [1]): 6.70

Structure (SMILES): CC1(C)OB([C@H](CCc2ccccc2)NC(=O)N2C/C(=C\c3ccc(F)cc3)C(=O)/C(=C/c3ccc(F)cc3)C2)OC1(C)C
- pIC50 (HCT-116 [1]): 5.98

Structure (SMILES): CC(C)C[C@H](NC(=O)[C@H](CC(C)C)NC(=O)N1C/C(=C\c2ccc(F)cc2)C(=O)/C(=C/c2ccc(F)cc2)C1)B1OC(C)(C)C(C)(C)O1
- pIC50 (HCT-116 [1]): 6.19

Structure (SMILES): CC(C)C[C@H](NC(=O)[C@H](Cc1ccc2ccccc2c1)NC(=O)N1C/C(=C\c2ccc(F)cc2)C(=O)/C(=C/c2ccc(F)cc2)C1)B1OC(C)(C)C(C)(C)O1
- pIC50 (HCT-116 [1]): 6.76

Structure (SMILES): O=C1/C(=C/c2ccc([N+](=O)[O-])cc2)CNC/C1=C\c1ccc([N+](=O)[O-])cc1
- solubility [7]: Insoluble

Structure (SMILES): CC[C@H](NC(=O)N1C/C(=C\c2ccc(F)cc2)C(=O)/C(=C/c2ccc(F)cc2)C1)B1OC(C)(C)C(C)(C)O1
- pIC50 (HCT-116 [1]): 6.06

Structure (SMILES): CC(C)C[C@H](NC(=O)[C@@H](NC(=O)N1C/C(=C\c2ccc(F)cc2)C(=O)/C(=C/c2ccc(F)cc2)C1)C(C)C)B1OC(C)(C)C(C)(C)O1
- pIC50 (HCT-116 [1]): 6.27

Structure (SMILES): CCC[C@H](NC(=O)N1C/C(=C\c2ccc(F)cc2)C(=O)/C(=C/c2ccc(F)cc2)C1)B1OC(C)(C)C(C)(C)O1
- pIC50 (HCT-116 [1]): 6.11

Structure (SMILES): O=C1/C(=C/c2ccc(F)cc2)CNC/C1=C\c1ccc(F)cc1
- solubility [7]: Soluble
